For assay [1], the system named is α-L-rhamnosidase (from Penicillium decumbens). Kind of assay: Glycosidase inhibition, Table 6 (Laboratory 1). It is filed as biochemical. The text has this: (§1) The enzymes α-D-glucosidase (from yeast), β-D-glucosidases (from almond and bovine liver), α-D-galactosidase (from coffee beans), β-D-galactosidase (from bovine liver), α-D-mannosidase (from Jack bean), β-D-mannosidase (from snail), α-L-rhamnosidase (from Penicillium decumbens), α-L-fucosidase (from bovine kidney), trehalase (from porcine kidney), β-D-glucuronidases (from E. coli and bovine liver), amyloglucosidase (from A. niger), para-nitrophenyl glycosides, and various disaccharides were purchased from Sigma-Aldrich Co. (St. Louis, MO, USA).
(§2) Brush border membranes were prepared from the rat small intestine according to the method of Kessler et al., and were assayed at pH 6.8 for rat intestinal maltase using maltose. For rat intestinal maltase, porcine kidney trehalase, and A. niger amyloglucosidase activities, the reaction mixture contained maltose (25 mM) and the appropriate amount of enzyme, and the incubations were performed for 10–30 min at 37 °C. The reaction was stopped by heating at 100 °C for 3 min. After centrifugation (600× g; 10 min), the resulting reaction mixture was added to the Glucose CII-test Wako (Wako Pure Chemical Ind., Osaka, Japan). The absorbance at 505 nm was measured to determine the amount of the released D-glucose. Other glycosidase activities were determined using an appropriate para-nitrophenyl glycoside as substrate at the optimum pH of each enzyme. The reaction mixture contained the substrate (2 mM) and the appropriate amount of enzyme. The reaction was stopped by the addition of Na2CO3 (400 mM). The released para-nitrophenol was measured spectrometrically at 400 nm. All reactions run in methanol.

Assay [2] concerns the target T1, α-D-mannosidase (from Jack bean) (Canavalia ensiformis, UniProt C0HJB3).
T1 construct: purchased Sigma-Aldrich Co
T1 sequence (C0HJB3 1-981): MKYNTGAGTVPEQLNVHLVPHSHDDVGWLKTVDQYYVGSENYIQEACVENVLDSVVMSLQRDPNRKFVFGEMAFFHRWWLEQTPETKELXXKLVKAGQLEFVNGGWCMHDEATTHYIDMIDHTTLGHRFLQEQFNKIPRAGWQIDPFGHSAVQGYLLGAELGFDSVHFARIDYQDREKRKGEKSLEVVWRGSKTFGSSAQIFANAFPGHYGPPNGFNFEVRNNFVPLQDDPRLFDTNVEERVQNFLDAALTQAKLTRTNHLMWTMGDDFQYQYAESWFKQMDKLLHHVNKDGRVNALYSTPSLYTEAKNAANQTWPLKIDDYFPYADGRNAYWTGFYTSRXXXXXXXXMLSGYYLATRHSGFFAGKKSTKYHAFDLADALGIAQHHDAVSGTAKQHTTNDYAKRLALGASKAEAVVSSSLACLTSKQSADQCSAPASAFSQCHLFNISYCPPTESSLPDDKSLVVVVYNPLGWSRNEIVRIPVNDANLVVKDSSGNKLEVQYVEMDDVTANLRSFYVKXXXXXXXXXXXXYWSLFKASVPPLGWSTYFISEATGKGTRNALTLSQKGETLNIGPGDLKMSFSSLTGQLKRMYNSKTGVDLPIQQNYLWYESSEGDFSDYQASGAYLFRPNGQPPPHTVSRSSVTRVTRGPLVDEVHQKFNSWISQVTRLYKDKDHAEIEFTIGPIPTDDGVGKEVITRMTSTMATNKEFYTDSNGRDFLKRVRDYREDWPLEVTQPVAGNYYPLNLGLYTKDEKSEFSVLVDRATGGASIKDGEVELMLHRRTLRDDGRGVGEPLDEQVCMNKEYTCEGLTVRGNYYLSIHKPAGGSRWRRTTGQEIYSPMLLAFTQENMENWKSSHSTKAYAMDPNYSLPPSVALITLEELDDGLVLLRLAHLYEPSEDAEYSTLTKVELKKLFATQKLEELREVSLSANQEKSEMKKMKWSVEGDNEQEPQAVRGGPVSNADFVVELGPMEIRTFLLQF
The experiment in a line: Glycosidase inhibition, Table 6 (Laboratory 1). It is filed as biochemical.
From the text: as §1, §2

The test system of assay [3] is MCF10A normal breast cells. The experiment in a line: Cancer screening, MTT growth inhibition. The following applies: 72-h exposure; for inhibition at 25 µM / GI50: Homo sapiens, MCF-10A; for inhibition at 25 µM: read-out: MCF10A Breast (Normal), Percentage (%) Cell Growth Inhibition in response to 25 µM of Drug; for GI50: dose response, read-out: MCF10A Breast (Normal), GI50 = Concentration (µM) that inhibits cell growth by 50%. It is filed as cell-based. The protocol: (§3) Two assays were run: the dose screen to ascertain cell growth inhibition in response to 25 µM of drug (on a blue background) and the dose response (GI50) (on a green background). For a discussion of BNCT as a radiotherapeutic modality, a rationalisation is provided here.
(§4) All test agents were prepared as stock solutions (20 mM) in dimethyl sulfoxide (DMSO) and stored at −20 °C. Cell lines used in the study included HT29, (colorectal carcinoma); U87, SJ-G2, (glioblastoma); MCF-7, (breast carcinoma); A2780 (ovarian carcinoma); H460 (lung carcinoma); A431 (skin carcinoma); Du145 (prostate carcinoma); BE2-C (neuroblastoma) and MiaPaCa-2 (pancreatic carcinoma); together with the one non-tumour derived normal breast cell line (MCF10A). All cell lines were incubated in a humidified atmosphere 5% CO2 at 37 °C. The cancer cell lines were maintained in Dulbecco’s modified Eagle’s medium (DMEM; Sigma, Australia) supplemented with foetal bovine serum (10%), sodium pyruvate (10 mM), penicillin (100 IUmL^−1), streptomycin (100 µg mL^−1), and L-glutamine (2 mM).
The non-cancer MCF10A cell line was maintained in DMEM/F12 (1:1) cell culture media, 5% heat inactivated horse serum, supplemented with penicillin (50 IUmL^−1), streptomycin (50 µg mL^−1), HEPES (20 mM), L-glutamine (2 mM), epidermal growth factor (20 ng mL^−1), hydrocortisone (500 ng mL^−1), cholera toxin (100 ng mL^−1), and insulin (10 mg mL^−1).
(§5) Growth inhibition was determined by plating cells in duplicate in medium (100 µL) at a density of 2500–4000 cells per well in 96-well plates. On day 0 (24 h after plating), when the cells are in logarithmic growth, medium (100 µL) with or without the test agent was added to each well. After a 72-h drug exposure, growth inhibitory effects were evaluated using the MTT (3-(4,5-dimethyltiazol-2-yl)-2,5-diphenyltetrazolium bromide) assay and absorbance read at 540 nm. The percentage growth inhibition was calculated at a fixed concentration of 25 µM, based on the difference between the optical density values on day 0 and those at the end of drug exposure. Each data point is the mean ± the standard error of the mean (SEM) calculated from three replicates, which were performed on separate occasions and separate cell line passages.

Assay [4] deals with MIA-Pa-Ca2 pancreatic carcinoma cells. The experiment in a line: Cancer screening, MTT growth inhibition. Type of assay: cell-based. The note with it: 72-h exposure; for inhibition at 25 µM / GI50: Homo sapiens; for inhibition at 25 µM: MIA PaCa-2, 25 µM, read-out: MIA-Pa-Ca2 Pancreatic Carcinoma, Percentage (%) Cell Growth Inhibition in response to 25 µM of Drug; for GI50: MIA PaCa-2, dose response, read-out: MIA-Pa-Ca2 Pancreatic Carcinoma, GI50 = Concentration (µM) that inhibits cell growth by 50%. On the procedure:
as §3, §4, §5

The test system of assay [5] is BE2-C neuroblastoma cells. The experiment in a line: Cancer screening, MTT growth inhibition. It is filed as cell-based. The note with it: 72-h exposure; for inhibition at 25 µM: Homo sapiens, BE(2)-C, read-out: BE2-C Neuroblastoma, Percentage (%) Cell Growth Inhibition in response to 25 µM of Drug. On the procedure: as §3, §4, §5

A value given as a limit tells only on which side of the number the result lay.

The text below walks through data of article PMC12472391, “Borylated Five-Membered Ring Iminosugars: Synthesis, Spectroscopic Analysis, and Biological Evaluation for Glycosidase Inhibition and Anticancer Properties for Application in Boron Neutron Capture Therapy (BNCT)—Part 1” (Pharmaceuticals, 2025).

As a reminder, the inhibition is the share of the control response that was lost under treatment. In the case of `OC[C@H](O)[C@@H]1[C@H](O)[C@H](O)CN1Cc1ccccc1` [Compound 5, N-Benzyl-1,4-dideoxy-1,4-imino-L-gulitol], the “α-L-Rhamnosidase P. decumbens, inhibition % at 100 μM” value in assay [1] is listed as “^c NI ^d (1.5%)”. Besides, at 100 µM the inhibition in assay [2] was 4.4%. For the same compound, in assay [3], the inhibition at 25 µM was found to be 3% and the GI50 was greater than 50 µM. In assay [4], the inhibition at 25 µM turned out to be 6 ± 1% and the GI50 is greater than 50 µM.
As to `N[C@@H](Cc1ccc(B(O)O)cc1)C(=O)O` [BPA, 4-borono-L-phenylalanine, reference compound], in assay [1], the “α-L-Rhamnosidase P. decumbens, inhibition % at 100 μM” value was “^c NI ^d (0%)”. Further, the figures for the inhibition at 25 µM in assay [3], in assay [4] and in assay [5] were 4%, 3% and 13%, respectively.
Consider `OC[C@H](O)[C@@H]1[C@H](O)[C@H](O)CN1Cc1ccc(B(O)O)cc1` [para 8, N-(4-Methylphenylboronic acid)-1,4-dideoxy-1,4-imino-L-gulitol], for which the “α-L-Rhamnosidase P. decumbens, inhibition % at 1000 μM” value in assay [1] is listed as “^a NI ^b (26.3%)”. For the same compound, in assay [2], at 1000 µM the inhibition was 0%. For the same compound, in assay [3], the inhibition at 25 µM is 1% and the GI50 was greater than 50 µM. Moreover, in assay [4], the inhibition at 25 µM came to 11 ± 1% and the GI50 was greater than 50 µM.
Take `OC1O[C@@H]2[C@H]([C@H]1O)N(Cc1ccccc1)C[C@H]2O` (stereo partly drawn) [Compound 4, N-Benzyl-3,6-dideoxy-3,6-imino-D-gulofuranose]: the “α-L-Rhamnosidase P. decumbens, inhibition % at 1000 μM” value in assay [1] is given as “^a NI ^b (0%)”. The compound also showed an inhibition at 1000 µM in assay [2] of 7.5%. Further, the inhibition at 25 µM came to 14% in assay [3], 8% in assay [4] and 12% in assay [5].
Take `CC1(C)O[C@H]2O[C@H]3[C@@H]([C@H]2O1)N(Cc1ccc(B2OC(C)(C)C(C)(C)O2)cc1)C[C@H]3O` [para 6, N-(4-Methylphenylboronic acid pinacol ester)-3,6-dideoxy-3,6-imino-1,2-O-isopropylidene-α-D-gulofuranose]: the “α-L-Rhamnosidase P. decumbens, inhibition % at 100 μM” value in assay [1] is listed as “^c NI ^d (1.4%)”. This compound gave an inhibition at 100 µM in assay [2] of 0%. In addition, the inhibition at 25 µM was 14% in assay [3], 9% in assay [4] and 5% in assay [5].
As for `N[C@@H](Cc1ccc(B(O)O)cc1)C(=O)O` [^10B-BPA, reference compound], the “α-L-Rhamnosidase P. decumbens, inhibition % at 100 μM” value in assay [1] is “^c NI ^d (0%)”. In addition, the “α-D-Mannosidase Jack Bean, inhibition % at 100 μM” value in assay [2] (100 μM) was “^c NI ^d (0%)”. Besides, the “MCF10A Breast (Normal), Percentage (%) Cell Growth Inhibition in response to 25 µM of Drug” value in assay [3] is “* <0%”. Further, the “MIA-Pa-Ca2 Pancreatic Carcinoma, Percentage (%) Cell Growth Inhibition in response to 25 µM of Drug” value in assay [4] is “* 11 ± 3%”. Further, the “BE2-C Neuroblastoma, Percentage (%) Cell Growth Inhibition in response to 25 µM of Drug” value in assay [5] is “* 10 ± 6%”.
Consider `CC1(C)O[C@H]2O[C@H]3[C@@H]([C@H]2O1)N(Cc1ccccc1)C[C@H]3O` [Compound 3, N-Benzyl-3,6-dideoxy-3,6-imino-1,2-O-isopropylidene-α-D-gulofuranose], for which, in assay [1], the “α-L-Rhamnosidase P. decumbens, inhibition % at 100 μM” value is “^c NI ^d (0.5%)”. Further, the inhibition at 100 µM in assay [2] was 0.9%. Further, the inhibition at 25 µM turned out to be 9% in assay [3], 7% in assay [4] and 10% in assay [5].
“borocaptate sodium [BSH, reference compound]”: the “α-L-Rhamnosidase P. decumbens, inhibition % at 1000 μM” value in assay [1] is “^a NI ^b (0.2%)”. For the same compound, the “α-D-Mannosidase Jack Bean, inhibition % at 1000 μM” value in assay [2] (1000 μM) is reported as “^a NI ^b (7.9%)”. Besides, the “MCF10A Breast (Normal), Percentage (%) Cell Growth Inhibition in response to 25 µM of Drug” value in assay [3] is listed as “* 8 ± 3%”. Moreover, in assay [4], the “MIA-Pa-Ca2 Pancreatic Carcinoma, Percentage (%) Cell Growth Inhibition in response to 25 µM of Drug” value is “* 2 ± 6%”. Further, the “BE2-C Neuroblastoma, Percentage (%) Cell Growth Inhibition in response to 25 µM of Drug” value in assay [5] is listed as “* 10 ± 6%”.
`OB(O)c1ccc(CN2CC(O)C3OC(O)C(O)C32)cc1` [para 7, N-(4-Methylphenylboronic acid)-3,6-dideoxy-3,6-imino-D-gulofuranose]: the “α-L-Rhamnosidase P. decumbens, inhibition % at 1000 μM” value in assay [1] was “^a NI ^b (15.8%)”. For the same compound, in assay [2], at 1000 µM the inhibition was 0%. Moreover, in assay [3], the inhibition at 25 µM amounted to 4 ± 2% and the GI50 was greater than 50 µM. For the same compound, in assay [4], the inhibition at 25 µM turned out to be 14% and the GI50 is greater than 50 µM.
